One test has as its system HCT115 (KRAS^G13D). Description: Proliferation, HCT115 cells. It is filed as cell-based.
In the next test the test system is A375 (BRAF^V600E). Description: Proliferation, A375 cells. It is filed as cell-based.
For test [1], the system named is tumor cells bearing activating Ras mutations. Description: Growth of tumor cells bearing activating Ras mutations. To be noted: FIG. 6. In kind it is cell-based. The source says:
(§1) In one embodiment, the MEK inhibitor of the combination therapy is either GDC-0973 or GDC-0623. […] FIG. 5. […] FIG. 6.

Test [2] has as its system KRAS-Mutant DLD-1 Colorectal Adenocarcinoma Tumor Xenografts. Description: DLD-1 colorectal xenograft combination study (Example 7). In kind it is in vivo, mice. The procedure:
(§2) A combination study of MEHD7945A and cobimetinib was conducted in the KRAS-mutant colorectal xenograft models LS180 and DLD-1. Both of these models were selected because of their KRAS-mutant status and their EGFR and HER3 expression. Cobimetinib was administered as an aqueous solution orally at […] once daily for 21 days. MEHD7945A was administered IV once a week until Day 21 was reached. Tumor sizes and body weights were recorded twice weekly over the course of the study. Mice were promptly euthanized when tumor volume exceeded 2000 mm3 or if body weight loss was 20% of their starting weight.
(§3) To appropriately analyze the repeated measurement of tumor volumes from the same animals over time, a mixed-modeling approach was used (Pinheiro et al. 2009). This approach addressed both repeated measurements and modest drop-out rates due to non-treatment-related termination of animals before study end. This analysis was used to determine tumor growth inhibition as a percentage of vehicle (% TGI) or time to tumor progression (TTP).
After randomization, DLD-1 tumor bearing mice were given PO gavage doses of 0 (vehicle), 3, or 10 mg/kg cobimetinib (expressed as free-base equivalents) QD for 21 days. Mice received 25 mg/kg of MEHD7945A via IV bolus injection QW for a total of three injections. In groups that received both agents, cobimetinib was administered first and immediately followed by MEHD7945A.

Another test concerns LS180 cells. Description: TGFα-stimulated LS180 cells, immunoblot of pAKT and pERK1/2. In kind it is cell-based. To be noted: 10 μg/mL MEHD7945A, 0.05 μM cobimetinib or combination 1 hour before 5 nM TGFα 12 minutes. The source says: (§4) Inhibition of the RAS/RAF/MEK and the PI3K/AKT pathways were explored in vitro using MEHD7945A and cobimetinib or the combination of both agents in KRAS-mutant colorectal cell lines. Two KRAS mutant colorectal cell lines were selected to assess the potential upregulation of phosphorylated AKT (pAKT) by cobimetinib due to the inhibition of negative feedback loops. Upregulation of pAKT upon MEK inhibition has been described in several cell systems (Mirzoeva et al. 2009; Diep et al 2011; Turke et al. 2012). Moreover, we investigated if the addition of MEHD7945A to cobimetinib treatment could enhance pAKT and pERK1/2 inhibition. LS180 cells were pretreated with 10 μg/mL MEHD7945A, 0.05 μM cobimetinib, or the combination thereof for one hour before stimulation with 5 nM TGFα for twelve minutes. DLD-1 cells were pretreated with 10 μg/mL MEHD7945A, 0.025 μM cobimetinib, or the combination thereof for 1 hour before stimulation with 5 nM TGFα for 12 minutes. Cell lysates were immunoblotted to detect phosphorylation of EGFR (pEGFR1068), phosphorylation of AKT (pAKTS473), and phosphorylation of ERK1/2 (pERK1/2 T202/Y204), and total protein levels of EGFR, AKT, or ERK1/2. The results are shown in FIG. 9 (left panel=LS180 cells, right panel=DLD-1 cells) (EGFR=epidermal growth factor receptor; ERK=extracellular signal regulated kinase; p=phosphorylated; TGFα=transforming growth factor α) […]
A general note: A western blot detects proteins with antibodies after separation by electrophoresis.

Test [3] has as its system LS180 Colorectal Adenocarcinoma Tumor Xenografts. Description: LS180 colorectal xenograft combination study (Example 7). It is filed as in vivo, mice. The procedure: as §2, §3
After randomization, LS180 tumor bearing mice were given oral (PO) gavage doses of 0 (vehicle), 3, or 10 mg/kg cobimetinib (expressed as free-base equivalents) once a day (QD) for 21 days. Mice were given 25 mg/kg of MEHD7945A via intravenous (IV) bolus injection once per week (QW) for a total of three injections. In groups that received both agents, cobimetinib was administered first and immediately followed by MEHD7945A.

Test [4] has as its system BxPC3 Ductal Pancreatic Xenograft Tumors. Kind of test: Pancreatic BxPC3 xenograft combination study (Example 8). It is filed as in vivo, mice.
Description: as §3
After randomization, mice were given PO gavage doses of 0 (vehicle), 1, or 5 mg/kg cobimetinib (expressed as free-base equivalents) QD for 21 days. Mice were given 25 mg/kg of MEHD7945A via IV bolus injection QW for a total of three injections. In groups that received both agents, cobimetinib was administered first and immediately followed by MEHD7945A.
Time to tumor progression (TTP) to twice (2×) initial tumor volume was monitored for each group following 21 days of dosing (see FIG. 13C). […] In FIG. 13 CI=confidence interval; CR=complete response (100% decrease in tumor volume); HB#8=histidine buffer; MCT=0.5% (w/v) methylcellulose, 0.2% (w/v) polysorbate 80; NA=not achieved; PR=partial response (50-99% decrease in tumor volume); TTP=time to tumor progression to twice (2×) or five times (5×) the initial tumor volume represents the group average in days.

In test [5] the test system is tumor cells bearing activating B-RAF mutations. Description: Growth of tumor cells bearing activating B-RAF mutations. It is filed as cell-based. The following applies: FIG. 5.
Description: as §1

The subject of a further test is DLD-1 cells. Kind of test: TGFα-stimulated DLD-1 cells, immunoblot of pAKT and pERK1/2. In kind it is cell-based. The following applies: 10 μg/mL MEHD7945A, 0.025 μM cobimetinib or combination 1 hour before 5 nM TGFα 12 minutes.
Description: as §4

Another test deals with HER3-ECD (Homo sapiens, UniProt P21860). To be noted: soluble competitor 0.02-20 μg/ml.
The test system of a further test is pAKT (Ser473). Description: NRG-stimulated MCF-7 cells, immunoblot of pAKT. It is filed as cell-based. To be noted: 0.5 nM NRG for 10 min. The procedure: (§5) The assays were performed as follows. […] FIG. 2A.
Test [6] addresses T1, EGFR (Homo sapiens, UniProt P00533). Kind of test: Betacellulin- and amphiregulin-induced EGFR phosphorylation. It is filed as cell-based.
Test [7] has as its system pERK1/2 (Thr202/Tyr204). Kind of test: NRG-stimulated MCF-7 cells, immunoblot of pERK1/2. To be noted: 0.5 nM NRG for 10 min. In kind it is cell-based. The procedure: as §5
In another test the test system is FaDu cells. Description: FaDu xenograft, head and neck squamous cell carcinoma model. It is filed as in vivo. To be noted: FaDu tumors in CB17 SCID mice, 25 mg/kg intraperitoneally weekly, 2× loading dose, four treatments. The procedure: MEHD7945A, a commercially available anti-EGFR antibody, and an anti-HER3 antibody were tested in mice with established tumors derived from Fadu cells (ATCC HTB-43, Manassas, Va.) 5×10^6 FaDu cells were inoculated subcutaneously in CB17 SCID mice. Animals with similarly sized tumors were randomized into treatment cohorts (n=9/group) as follows: Vehicle (MEHD7945A formulation buffer), anti-EGFR antibody (25 mg/kg), anti-HER3 antibody (50 mg/kg), and MEHD7945A (25 mg/kg). Treatments were administered intraperitoneally, beginning with a 2× loading dose (50 or 100 mg/kg respectively) on the day of randomization and continuing weekly for a total of four treatments.

Test [8] relates to pERK1/2 (Thr202/Tyr204). The following applies: EGFR-NR6 cells, 1 hr pretreatment, 5 nM TGF-a for 10 min. The procedure:
The assays were performed as follows. MCF-7 cells treated with indicated concentrations of MEHD7945A or anti-HER3 were stimulated with 0.5 nM NRG for 10 min. Cell lysates were immunoblotted to detect pHER3 (Tyr1289), pAKT (Ser473), pERK1/2 (Thr202/Tyr204), and total HER3. FIG. 2A. […] Cell lysates were subjected to immunoblotting to detect, pERK1/2 (Thr202/Tyr204), total EGFR, and phosphorylated EGFR. Since EGFR-NR6 cells only express EGFR all potential phosphorylation sites of EGFR were detected using a pTyr antibody.

In another test the target is T2, pHER3 (Tyr1289) (Homo sapiens, UniProt P21860).
T2 construct: endogenous in cells; host or cells: MCF-7
Kind of test: NRG-stimulated MCF-7 cells, immunoblot of pHER3. To be noted: 0.5 nM NRG for 10 min. In kind it is cell-based. The procedure: as §5

Another test has as its target T3, phosphorylated EGFR (Homo sapiens, UniProt P00533).
T3 construct: expressed in transfected cells; host or cells: EGFR-NR6
Description: TGF-a-stimulated EGFR-NR6 cells, immunoblot of phosphorylated EGFR. It is filed as cell-based. To be noted: 1 hr pretreatment, 5 nM TGF-a for 10 min.

The target in test [9] is T1, EGFR. The following applies: cited from earlier work.
The test system of another test is ERK1/2 and AKT pathways. To be noted: A431 and BxPC3 cells.
Where [10] appears, read: cobimetinib 3 mg/kg PO QD 21 days.
Setting [11] is: cobimetinib 10 mg/kg PO QD 21 days.
[12] abbreviates: MEHD7945A 25 mg/kg IV QW, three injections.

Like-named read-outs stand apart in the source and are kept apart here.

Description for phosphorylated EGFR: The assays were performed as follows. […] Cell lysates were subjected to immunoblotting to detect, pERK1/2 (Thr202/Tyr204), total EGFR, and phosphorylated EGFR. Since EGFR-NR6 cells only express EGFR all potential phosphorylation sites of EGFR were detected using a pTyr antibody.

In the case of `O=C(NOCCO)c1ccc2cncn2c1Nc1ccc(I)cc1F` [GDC-0623], the EC50 in the test with HCT115 (KRAS^G13D) turned out to be 42 nM; in the test on A375 (BRAF^V600E) it was 7 nM. The “inhibiting the growth of tumor cells bearing activating Ras mutations” value in test [1] is “more activity”.

Turning to `O=C(c1ccc(F)c(F)c1Nc1ccc(I)cc1F)N1CC(O)([C@@H]2CCCCN2)C1` [GDC-0973, cobimetinib], the EC50 was found to be 520 nM with HCT115 (KRAS^G13D) and 5 nM in the test with A375 (BRAF^V600E). Also, the TGI stood at 39% in test [2] (setting [10]); 62% in [2] (setting [11]); 28% in test [3] (setting [10]); 63% in test [3] (setting [11]); 88% in [4] (cobimetinib 1 mg/kg PO QD 21 days); 109% in test [4] (cobimetinib 5 mg/kg PO QD 21 days). For the same molecule, the “phosphorylation of AKT (pAKTS473)” value with LS180 cells and in the test with DLD-1 cells was “increased phosphorylation of AKT” in each case. Besides, the “phosphorylation of ERK1/2 (pERK1/2 T202/Y204)” value in the test with LS180 cells and with DLD-1 cells was “partial inhibition” in each case. In addition, the entries for the “TTP 2× (time to tumor progression to twice initial tumor volume)” value in [4] (cobimetinib 1 mg/kg) and in [4] (cobimetinib 5 mg/kg) were 22 days and 33 days, respectively. Also, the “inhibiting the growth of tumor cells bearing activating B-RAF mutations” value in test [5] is listed as “more activity”.

B1: MEHD7945A: dual-action antibody which comprises two identical antigen binding domains, each of which specifically binds to both HER3 and EGFR (antibody, V domains shown)
VH: EVQLVESGGGLVQPGGSLRLSCAASGFTLSGDWIHWVRQAPGKGLEWVGEISAAGGYTDYADSVKGRFTISADTSKNTAYLQMNSLRAEDTAVYYCARESRVSFEAAMDYWGQGTLVTVSS
VL: DIQMTQSPSSLSASVGDRVTITCRASQNIATDVAWYQQKPGKAPKLLIYSASFLYSGVPSRFSGSGSGTDFTLTISSLQPEDFATYYCQQSEPEPYTFGQGTKVEIKR
For B1, the “binding to immobilized HER3-ECD with increasing amounts of EGFR-ECD” value with HER3-ECD is recorded as “reduced in a dose-dependent manner”. Also, the TGI in test [2] (setting [12]) is 62%; in test [3] (setting [12]), 44%; in test [4] (setting [12]) it was 107%. In the test with pAKT (Ser473), the “IC50, phosphorylation of AKT” value stood at 0.19 µg/mL. Moreover, the “betacellulin- and amphiregulin-induced EGFR phosphorylation” value with EGFR [6] is “inhibited”. Besides, the figures for the “IC50, phosphorylation of ERK1/2” value in the test with pERK1/2 (Thr202/Tyr204) [7] and with pERK1/2 (Thr202/Tyr204) [8] were 1.13 µg/mL and 0.16 µg/mL, respectively. Moreover, in the test on FaDu cells, the “inhibition of tumor growth” value is given as “more effective in inhibiting tumor growth than either an anti-EGFR specific or an anti-HER3 specific antibody”. Moreover, the “IC50, phosphorylation of HER3” value with pHER3 (Tyr1289) stood at 0.05 µg/mL. Moreover, the “TTP 2× (time to tumor progression to twice initial tumor volume)” value in test [4] (MEHD7945A 25 mg/kg) came out at 39.5 days. In addition, the “IC50, phosphorylation of EGFR” value with phosphorylated EGFR came out at 0.03 µg/mL. Also, the Kd in the test with EGFR [9] is about 1.9 nM. The “inhibition of ERK1/2 and AKT pathways” value in the test on ERK1/2 and AKT pathways was “as potently as the combination of anti-HER3 and cetuximab”.

In general, EC50 refers to the concentration at which the effect is half-maximal. The low end stands for higher potency in that assay, the high end for lower potency in that assay. As a reminder, the Kd is the concentration at which binding is half-saturated.

Values taken from US20140271634A1, “COMBINATIONS OF A MEK INHIBITOR COMPOUND WITH AN HER3/EGFR INHIBITOR COMPOUND AND METHODS OF USE” (The Regents of the University of California, priority 2013, published 2014).
